Experimental data as given in patent US9593139B2, “Compositions, methods, and kits comprising platinum compounds associated with a ligand comprising a targeting moiety” (priority 2013, dated 2017).

Experiments:
A2780 cells = assay: MTT cytotoxicity assay, cisplatin-sensitive ovarian cancer cell line; type: cell-based; settings: 72 h incubation
Method: (§1) A2780 and A2780CP70 (ovarian cisplatin-sensitive and -resistant) cell lines were obtained from Fox Chase Cancer Center and cultured in RPMI-1640 medium supplemented with 10% fetal bovine serum (FBS) and 1% penicillin/streptomycin.
(§2) The colorimetric MTT assay was used to assess cytotoxicity. In a 96-well plate, 2000 cells per well were seeded in 100 μL growth medium and allowed to attach overnight. The growth media was then aspirated and replaced with 100 μL of growth medium containing varying concentrations of the platinum complexes. Six wells were used per concentration level. After 72 h, the platinum-containing media was aspirated and replaced with 200 μL of RPMI-1640 containing 0.67 mg/mL MTT. The cells were further incubated for 4 h. The MTT solution was removed, and the resulting purple formazan crystals were dissolved in 100 μL of 25:1 mixture of DMSO and aqueous ammonia. The absorbance was measured at 550 nm. The absorbance values were normalized to the Pt-free wells (100% cell viability) and are plotted versus platinum concentration. […] These experiments were repeated at least three times, and the reported IC50 values are the averages of these trials with the error estimated from the resulting standard deviations.

A2780CP70 cells = assay: MTT cytotoxicity assay, cisplatin-resistant ovarian cancer cell line; type: cell-based; settings: for IC50: A2780CP70 (cisplatin-resistant), MTT, 72 h incubation; for R.F. (resistance factor, IC50(resistant)/IC50(sensitive)): A2780CP70 vs A2780, 72 h incubation
Method: as §1, §2

Molecule | IC50 (A2780 cells) [µM] | IC50 (A2780CP70 cells) [µM] | R.F. (resistance factor, IC50(resistant)/IC50(sensitive)) (A2780CP70 cells)
O=C1[O][Pt-2]2([NH2+]C3CCCC[C@H]3[NH2+]2)[O]C1=O (stereo partly drawn) [Oxaliplatin, (R,R-1,2-diaminocyclohexane)oxalatoplatinum(II)] | 0.25 | 1 | 4.1 ± 0.4
N.N.[Cl][Pt][Cl] [cisplatin, cis-diamminedichloroplatinum(II)] | 0.6 ± 0.08 | 5.2 ± 1.4 | 8.7 ± 2.6
[Pt(acac)(NH3)2](SO4)0.5 | 13.9 ± 1.9 | 122 ± 10 | 8.8 ± 1.4
[Pt(succac)(NH3)2]-r(Fxr)3-CONH2 [Pt-MPP] | 7.5 ± 0.3 | 5 ± 1.4 | 0.7±0.2
